{
  "source": "patent US11931374B2",
  "about": "“Adenosine receptor modulators for the treatment of circadian rhythm disorders” (OXFORD UNIVERSITY INNOVATION LIMITED, priority 2016, dated 2024)",
  "key": {"[1]": {"test_system": "Per2", "assay": "Per2 mRNA levels in U2OS cells by qPCR", "assay_type": "cell-based", "protocol": "(§1) Total RNA was extracted using the microRNeasy column method (Qiagen, Hilden, Germany). Quality and quantity of RNA were measured using an Agilent Bioanalyzer and a Nanodrop1000 (Thermo Fisher Scientific, Waltham, MA USA), respectively.\nRNA samples were prepared as described for microarray hybridisation. cDNA was synthesized with a qScript cDNA synthesis kit (Quanta Biosciences, Gaithersburg, MD), and quantitative PCR (qPCR) was conducted with Sybr green I and an SDS7700 thermal cycler (Applied Biosystems, Foster City, CA). Relative quantification of transcript levels was done as described previously (Peirson et al., Nucleic Acids Res. 2003 Jul. 15; 31(14):e73.). The geometric mean of a minimum of three housekeeping genes was used for normalization (Gapdh, ActB, GusB and Rps9 for example).\nCells from the U2OS (HTB-96) line were obtained, tested and identified. The cells were cultured in T-75 flasks, in Dulbecco's modified Eagle medium (DMEM) supplemented with 10% foetal bovine serum (FBS) and 1% penicillin-streptomycin (P/S) at 37° C. in a humidified atmosphere at 5% CO2. The cells were subcultured every 2 to 4 days in a 1:2 to 1:6 ratio, in accordance with the ATCC recommendations. The cells were counted using a haemocytometer, and their viability in a culture was maintained at above 95%, measured with a Presto Blue exclusion assay according to the manufacturer's specifications. Cells were transfected with siRNAs (typically at 50 nM concentrations, sequences as previously listed), the CRE::Luc (pGL4.29[luc2P/CRE/Hygro] Vector, encoding Luc2P […] under the control of a strong cAMP response element (CRE) promoter containing 3 CRE elements within its sequence; Promega) reporter vector or cAMP-GLOSensor plasmid (Promega) as per manufacturer's instructions using either Lipofectamine RNAimax (Invitrogen) or Lipofectamine3000 (Invitrogen)."}, "[2]": {"test_system": "Bmal1::Luc reporter U2OS cells", "assay": "Bmal1::Luc reporter U2OS cells circadian rhythm", "assay_type": "cell-based", "details": "10 uM"}, "[3]": {"test_system": "Per2::Luc SCN slice cultures", "assay": "Per2::Luc SCN slice culture", "assay_type": "cell-based, mice", "details": "isolated Per2::Luc SCN slice cultures", "text": "(§2) SCN Tissue Collection: Animals were housed under a 12:12 LD cycle for 2 weeks with food and water ad libitum. Animals then received either a drug injection with a alteration in the light dark cycle as described in the experiment and at set points following drug administration were sacrificed by cervical dislocation. Sham-treated mice not given a light pulse were dissected at each time point. Brains were removed and placed into a brain matrix (Kent Scientific, Torrington CT, USA). Per2::Luc transgenic animals (as reported in Yoo et al, Proc Natl Acad Sci USA. 2004 Apr. 13; 101(15):5339-46) were obtained from Prof Joseph Takahashi, Northwestern University.\nFor SCN slice culture: The brain was gently cut into a cube preserving the integrity of the SCN and cut into […] slices in ice-cold oxygenated Hanks Balanced Salt Solution containing 100 nM MK801 (Sigma-Aldrich). The SCN was microdissected and transferred to membrane filter (Millicell Cell Culture Insert, 30 mm, hydrophilic PTFE, 0.4 μm, Millipore) and cultured in 300 uL DMEM prepared as detailed in the Per2::Luc Assay."}, "[4]": {"test_system": "C57Bl/6 mice", "assay": "Phase shifting of circadian activity by drug (running wheel)", "assay_type": "in vivo", "protocol": "Animals were housed under a reversed 12:12 LD cycle (400 lux from white LED lamps) with food and water ad libitum. For phase-shifting studies, C57Bl/6 mice were maintained on running wheels in light tight chambers on a 12:12 LD cycle (400 lux from white LED lamps) and injected with drug at the indicated time points. The drugs were formulated in a vehicle consisting of 5% Koliphor-HS15 (Sigma-Aldrich, UK) 5% Cyclodextran (Sigma-Aldrich, UK) in 0.9% saline. This vehicle was warmed to 37° C. and the indicated drugs kept at a 100× stock in DMSO and mixed at the appropriate concentration to be administered at approximately 300 ul intraperitoneal injection (n=6 to 10). Where the time point of injection was in the dark, the procedure was conducted under dim red light. Where measuring phase-shifting, the mice were then placed in DD and allowed to free run for 14 days in DD, running wheel activity data was collected and analysed on Clocklab (Actimetrics, Wilmette, IL). For jet-lag studies, mice were maintained on running wheels in light tight chambers on a 12:12 LD cycle (400 lux from white LED lamps) and injected with drugs as above at ZT6 and the LD cycle was shifted 6 hours in advance. The onset of activity on each day was used to measure phase relative to the LD cycle.\nPhase Shifting: C57Bl/6 male mice (80 days or older) were maintained on running wheels in light tight chambers on a 12:12 LD cycle (100 lux from white LED lamps) on stable entrainment, were released in complete darkness. At set times as indicated in the experiments, the animals received an intraperitoneal injection (300 ul) of drug constituted in sterile saline with 5% Cyclodextrin (Sigma-Aldrich) and 5% Koliphor (Sigma-Aldrich) and then allowed to free run in DD, running wheel activity data were collected and analysed on Clocklab (Actimetrics, Wilmette, IL)."}, "[5]": {"test_system": "Per1", "assay": "Per1 mRNA within the SCN after intraperitoneal injection", "assay_type": "in vivo, mice", "details": "4 h after intraperitoneal injection", "text": "as §2, with “University. […]” for “University.”\nas §1\nRNA samples were prepared as described for microarray hybridisation. cDNA was synthesized with a qScript cDNA synthesis kit (Quanta Biosciences, Gaithersburg, MD), and quantitative PCR (qPCR) was conducted with Sybr green I and an SDS7700 thermal cycler (Applied Biosystems, Foster City, CA). Relative quantification of transcript levels was done as described previously (Peirson et al., Nucleic Acids Res. 2003 Jul. 15; 31(14):e73.). […]"}},
  "data": [
    {"smiles": "Nc1nc(-c2ccccc2)c2c(n1)-c1cc(OCCN3CCOCC3)ccc1C2=O", "note": "[JNJ40255293, 2-amino-8-[2-(4-morpholinyl)ethoxy]-4-phenyl-5H-indeno[1,2-d]pyrimidin-5-one]", "values": [
      {"measurement": "Per2 transcription", "setting": "[1]; 4 h post-drug treatment", "result": "significantly increased"},
      {"measurement": "Per2 mRNA", "setting": "[1]; U2OS cell cultures, 10 uM", "result": "Robust increases"},
      {"measurement": "Per2 mRNA levels", "setting": "[1]; U2OS cells, 30 uM", "result": "elevated"},
      {"measurement": "Per2 mRNA levels / expression", "setting": "[1]; U2OS cells, qPCR, concentration not given", "result": "induce the expression of Per1 and Per2"},
      {"measurement": "period length", "setting": "[2]", "result": "increases in period length"},
      {"measurement": "rhythms after washout of drug", "setting": "[2]", "result": "revert to normal rhythms after washout of drug"},
      {"measurement": "period length", "setting": "[3]", "result": "increased period length"},
      {"measurement": "phase shift of circadian activity", "setting": "[4]; 5 mg/kg intraperitoneal, 6 h after the onset of light (ZT6), then constant dark", "result": "induced a phase advance"},
      {"measurement": "phase shift of circadian activity", "setting": "[4]; 5 mg/kg, administered at CT16, constant dark", "result": "resulted in a phase delay"},
      {"measurement": "phase shifts compared with other agents (FIG. 9A)", "setting": "[4]; difference between onset pre and post injection", "result": "causes the largest phase shifts"},
      {"measurement": "Per1 mRNA levels within the SCN", "setting": "[5]", "result": "increase"}
    ]}
  ]
}
